Reference: patent EP3075724A1, “SOLID FORM OF AGOMELATINE” (F.I.S.- Fabbrica Italiana Sintetici S.p.A., priority 2015, dated 2016)

How the values were obtained:
Kinetic dissolution test = format: physicochemical; details: 200 mg tablet, 100 mL saline solution, paddle 100 rpm, 37 °C
Method: The tests were performed in duplicate on 13 mm tablets containing 200 mg agomelatine (form I) or agomelatine pyruvic acid cocrystal, which were prepared on a Digital Hydraulic Press at a force of about 8 metric tons. The tablets were placed in 100 mL of saline solution in a paddle apparatus at 100 rpm and 37 °C ± 0.5 °C. A 3 mL sample was withdrawn from each vessel at fixed time points, filtered through a 0.45 µm filter (discarding the first 1 mL), analyzed by HPLC, and compared to a previously prepared reference standard calibration curve. Immediately after each sampling, the solutions in the vessels were replenished with 3 mL of saline.

[1] = Stability tests (chemical stability by HPLC); format: physicochemical
Method: Agomelatine pyruvic acid cocrystal according to Example 1 was subjected to stability tests for seven days at 25 °C, 60 % RH and 40 °C, 75 % RH, respectively.

[2] = cited from earlier work
[3] = 5 min, Ø (average of #1 and #2)
[4] = 15 min, Ø (average of #1 and #2)
[5] = 30 min, Ø (average of #1 and #2)
[6] = 45 min, Ø (average of #1 and #2)
[7] = 60 min, Ø (average of #1 and #2)
[8] = 90 min, Ø (average of #1 and #2)
[9] = 120 min, Ø (average of #1 and #2)
[10] = 180 min, Ø (average of #1 and #2)
[11] = 240 min, Ø (average of #1 and #2)
[12] = 300 min, Ø (average of #1 and #2)
[13] = 360 min, Ø (average of #1 and #2)
[14] = 420 min, Ø (average of #1 and #2)

| SMILES | kinetic dissolution in aqueous medium (Kinetic dissolution test; 5 min, #1) | kinetic dissolution in aqueous medium (Kinetic dissolution test; 5 min, #2) | kinetic dissolution in aqueous medium (Kinetic dissolution test; [3]) | kinetic dissolution in aqueous medium (Kinetic dissolution test; 15 min, #1) | kinetic dissolution in aqueous medium (Kinetic dissolution test; 15 min, #2) | kinetic dissolution in aqueous medium (Kinetic dissolution test; [4]) | kinetic dissolution in aqueous medium (Kinetic dissolution test; 30 min, #1) | kinetic dissolution in aqueous medium (Kinetic dissolution test; 30 min, #2) | kinetic dissolution in aqueous medium (Kinetic dissolution test; [5]) | kinetic dissolution in aqueous medium (Kinetic dissolution test; 45 min, #1) | kinetic dissolution in aqueous medium (Kinetic dissolution test; 45 min, #2) | kinetic dissolution in aqueous medium (Kinetic dissolution test; [6]) | kinetic dissolution in aqueous medium (Kinetic dissolution test; 60 min, #1) | kinetic dissolution in aqueous medium (Kinetic dissolution test; 60 min, #2) | kinetic dissolution in aqueous medium (Kinetic dissolution test; [7]) | kinetic dissolution in aqueous medium (Kinetic dissolution test; 90 min, #1) | kinetic dissolution in aqueous medium (Kinetic dissolution test; 90 min, #2) | kinetic dissolution in aqueous medium (Kinetic dissolution test; [8]) | kinetic dissolution in aqueous medium (Kinetic dissolution test; 120 min, #1) | kinetic dissolution in aqueous medium (Kinetic dissolution test; 120 min, #2) | also measured |
| --- | --- | --- | --- | --- | --- | --- | --- | --- | --- | --- | --- | --- | --- | --- | --- | --- | --- | --- | --- | --- | --- |
| COc1ccc2cccc(CCNC(C)=O)c2c1 [Pyruvic Acid Cocrystal] | 5.21 µg/mL | 5.45 µg/mL | 5.33 µg/mL | 12.55 µg/mL | 13.42 µg/mL | 12.99 µg/mL | 22.75 µg/mL | 24.10 µg/mL | 23.43 µg/mL | 33.41 µg/mL | 37.03 µg/mL | 35.22 µg/mL | 42.71 µg/mL | 50.65 µg/mL | 46.68 µg/mL | 70.03 µg/mL | 77.31 µg/mL | 73.67 µg/mL | 84.65 µg/mL | 90.24 µg/mL | kinetic dissolution in aqueous medium (Kinetic dissolution test; [9]): 87.45 µg/mL; kinetic dissolution in aqueous medium (Kinetic dissolution test; 180 min, #1): 114.37 µg/mL; kinetic dissolution in aqueous medium (Kinetic dissolution test; 180 min, #2): 114.58 µg/mL; kinetic dissolution in aqueous medium (Kinetic dissolution test; [10]): 114.48 µg/mL; kinetic dissolution in aqueous medium (Kinetic dissolution test; 240 min, #1): 131.99 µg/mL; kinetic dissolution in aqueous medium (Kinetic dissolution test; 240 min, #2): 131.80 µg/mL; kinetic dissolution in aqueous medium (Kinetic dissolution test; [11]): 131.9 µg/mL; kinetic dissolution in aqueous medium (Kinetic dissolution test; 300 min, #1): 144.64 µg/mL; kinetic dissolution in aqueous medium (Kinetic dissolution test; 300 min, #2): 144.74 µg/mL; kinetic dissolution in aqueous medium (Kinetic dissolution test; [12]): 144.69 µg/mL; kinetic dissolution in aqueous medium (Kinetic dissolution test; 360 min, #1): 155.52 µg/mL; kinetic dissolution in aqueous medium (Kinetic dissolution test; 360 min, #2): 156.49 µg/mL; kinetic dissolution in aqueous medium (Kinetic dissolution test; [13]): 156.01 µg/mL; kinetic dissolution in aqueous medium (Kinetic dissolution test; 420 min, #1): 165.30 µg/mL; kinetic dissolution in aqueous medium (Kinetic dissolution test; 420 min, #2): 163.14 µg/mL; kinetic dissolution in aqueous medium (Kinetic dissolution test; [14]): 164.22 µg/mL; chemical stability as determined by HPLC ([1]; seven days at 25 °C, 60 % RH): excellent chemical stability; chemical stability as determined by HPLC ([1]; seven days at 40 °C, 75 % RH): excellent chemical stability |
| COc1ccc2cccc(CCNC(C)=O)c2c1 [Form I, N-[2-(7-methoxynaphthalen-1-yl)ethyl]acetamide] | 3.39 µg/mL | 4.38 µg/mL | 3.89 µg/mL | 8.20 µg/mL | 9.32 µg/mL | 8.76 µg/mL | 14.80 µg/mL | 15.58 µg/mL | 15.19 µg/mL | 22.55 µg/mL | 23.81 µg/mL | 23.18 µg/mL | 30.05 µg/mL | 31.53 µg/mL | 30.79 µg/mL | 47.49 µg/mL | 50.84 µg/mL | 49.17 µg/mL | 55.73 µg/mL | 58.72 µg/mL | kinetic dissolution in aqueous medium (Kinetic dissolution test; [9]): 57.23 µg/mL; kinetic dissolution in aqueous medium (Kinetic dissolution test; 180 min, #1): 75.07 µg/mL; kinetic dissolution in aqueous medium (Kinetic dissolution test; 180 min, #2): 74.85 µg/mL; kinetic dissolution in aqueous medium (Kinetic dissolution test; [10]): 74.96 µg/mL; kinetic dissolution in aqueous medium (Kinetic dissolution test; 240 min, #1): 91.32 µg/mL; kinetic dissolution in aqueous medium (Kinetic dissolution test; 240 min, #2): 86.85 µg/mL; kinetic dissolution in aqueous medium (Kinetic dissolution test; [11]): 89.09 µg/mL; kinetic dissolution in aqueous medium (Kinetic dissolution test; 300 min, #1): 102.54 µg/mL; kinetic dissolution in aqueous medium (Kinetic dissolution test; 300 min, #2): 96.76 µg/mL; kinetic dissolution in aqueous medium (Kinetic dissolution test; [12]): 99.65 µg/mL; kinetic dissolution in aqueous medium (Kinetic dissolution test; 360 min, #1): 112.42 µg/mL; kinetic dissolution in aqueous medium (Kinetic dissolution test; 360 min, #2): 106.36 µg/mL; kinetic dissolution in aqueous medium (Kinetic dissolution test; [13]): 109.39 µg/mL; kinetic dissolution in aqueous medium (Kinetic dissolution test; 420 min, #1): 121.98 µg/mL; kinetic dissolution in aqueous medium (Kinetic dissolution test; 420 min, #2): 114.14 µg/mL; kinetic dissolution in aqueous medium (Kinetic dissolution test; [14]): 118.06 µg/mL |
| COc1ccc2cccc(CCNC(C)=O)c2c1 [agomelatine, N-[2-(7-methoxynaphthalen-1-yl)ethyl]acetamide] |  |  |  |  |  |  |  |  |  |  |  |  |  |  |  |  |  |  |  |  | solubility in various organic solvents ([2]; e.g. ethanol, methanol, methylene chloride, freely soluble): > 100 mg/mL; solubility in purified water ([2]; purified water, practically insoluble): < 0.1 mg/mL |
